Source: ChEMBL document CHEMBL4828735, “Discovery of N-((3S,4S)-4-(3,4-Difluorophenyl)piperidin-3-yl)-2-fluoro-4-(1-methyl-1H-pyrazol-5-yl)benzamide (Hu7691), a Potent and Selective Akt Inhibitor That Enables Decrease of Cutaneous Toxicity” (J Med Chem, 2021)
Active and inactive are the calls of the source. The calls are words filed in the database; no cut-off is given here.

What was measured:
[1] = target: RAC-alpha serine/threonine-protein kinase (Homo sapiens, UniProt P31749); test: Inhibition of N-terminal GST-tagged human AKT1 (104 to 408 residues) expressed in baculovirus infected Sf21 cells incubated for 1 hr in presence of ATP by mobility shift assay
HGC-27 = test: Antiproliferative activity against human HGC-27 cells assessed as inhibition of cell growth incubated for 72 hrs by SRB assay; format: functional, cell-based; conditions: HGC-27, 72 h
786-0 [2] = test: Antiproliferative activity against human 786-0 cells assessed as inhibition of cell growth incubated for 72 hrs by SRB assay; format: functional, cell-based; conditions: 786-0, 72 h
KHOS/NP [3] = test: Antiproliferative activity against human KHOS cells assessed as inhibition of cell growth incubated for 72 hrs by SRB assay; format: functional, cell-based
HaCaT [4] = test: Induction of apoptosis in human HaCaT cells transfected with shAKT2 assessed as decrease in cleaved caspase 3 level by Western blot analysis; format: functional, cell-based
HaCaT [5] = test: Induction of apoptosis in human HaCaT cells assessed as viable cells at 9 uM by flow cytometry analysis (reference value: 79.16%); format: functional; conditions: read-out: Activity
HaCaT [6] = test: Induction of apoptosis in human HaCaT cells assessed as early apoptotic cells at 9 uM by flow cytometry analysis (reference value: 0.54%); format: functional
HaCaT [7] = test: Induction of apoptosis in human HaCaT cells assessed as late apoptotic cells at 9 uM by flow cytometry analysis (reference value: 17.13%); format: functional
HaCaT [8] = test: Induction of apoptosis in human HaCaT cells assessed as necrotic cells at 9 uM by flow cytometry analysis (reference value: 3.17%); format: functional
HaCaT [9] = test: Induction of apoptosis in human HaCaT cells transfected with shAKT1 assessed as viable cells at 9 uM by flow cytometry analysis (reference value: 77.12%); format: functional; conditions: read-out: Activity
HaCaT [10] = test: Induction of apoptosis in human HaCaT cells transfected with shAKT1 assessed as early apoptotic cells at 9 uM by flow cytometry analysis (reference value: 0.54%); format: functional
HaCaT [11] = test: Induction of apoptosis in human HaCaT cells transfected with shAKT1 assessed as late apoptotic cells at 9 uM by flow cytometry analysis (reference value: 18.52%); format: functional
HaCaT [12] = test: Induction of apoptosis in human HaCaT cells transfected with shAKT1 assessed as necrotic cells at 9 uM by flow cytometry analysis (reference value: 3.82%); format: functional
HaCaT [13] = test: Induction of apoptosis in human HaCaT cells transfected with shAKT2 assessed as viable cells at 9 uM by flow cytometry analysis (reference value: 79.95%); format: functional; conditions: read-out: Activity
HaCaT [14] = test: Induction of apoptosis in human HaCaT cells transfected with shAKT2 assessed as early apoptotic cells at 9 uM by flow cytometry analysis (reference value: 0.38%); format: functional
HaCaT [15] = test: Induction of apoptosis in human HaCaT cells transfected with shAKT2 assessed as late apoptotic cells at 9 uM by flow cytometry analysis (reference value: 16.77%); format: functional
HaCaT [16] = test: Induction of apoptosis in human HaCaT cells transfected with shAKT2 assessed as late apoptotic cells at 9 uM by flow cytometry analysis (reference value: 2.90%); format: functional
HaCaT [17] = test: Induction of apoptosis in human HaCaT cells transfected with shAKT3 assessed as viable cells at 9 uM by flow cytometry analysis (reference value: 78.17%); format: functional; conditions: read-out: Activity
HaCaT [18] = test: Induction of apoptosis in human HaCaT cells transfected with shAKT3 assessed as early apoptotic cells at 9 uM by flow cytometry analysis (reference value: 0.44%); format: functional
HaCaT [19] = test: Induction of apoptosis in human HaCaT cells transfected with shAKT3 assessed as late apoptotic cells at 9 uM by flow cytometry analysis (reference value: 17.55%); format: functional
HaCaT [20] = test: Induction of apoptosis in human HaCaT cells transfected with shAKT3 assessed as necrotic cells at 9 uM by flow cytometry analysis (reference value: 3.84%); format: functional
HaCaT [21] = test: Antiproliferative activity against human HaCaT cells assessed as inhibition of cell growth incubated for 72 hrs by SRB assay; format: cell-based
U-87 MG = test: Antiproliferative activity against human U-87MG cells assessed as inhibition of cell growth incubated for 72 hrs by SRB method; format: functional, cell-based, U-87MG ATCC
U-251 = test: Antiproliferative activity against human U251 cells assessed as inhibition of cell growth incubated for 72 hrs by SRB method; format: functional, cell-based; conditions: U-251, 72 h
[22] = Antiproliferative activity against human 95-D cells assessed as inhibition of cell growth incubated for 72 hrs by SRB method; format: functional, cell-based
NCI-H1975 = test: Antiproliferative activity against human NCI-H1975 cells assessed as inhibition of cell growth incubated for 72 hrs by SRB method; format: functional, cell-based; conditions: NCI-H1975, 72 h
A549 = test: Antiproliferative activity against human A549 cells assessed as inhibition of cell growth incubated for 72 hrs by SRB method; format: functional, cell-based; conditions: A549, 72 h
SMMC-7721 = test: Antiproliferative activity against human SMMC-7721 cells assessed as inhibition of cell growth incubated for 72 hrs by SRB method; format: functional, cell-based; conditions: SMMC-7721, 72 h
HepG2 = test: Antiproliferative activity against human HepG2 cells assessed as inhibition of cell growth incubated for 72 hrs by SRB method; format: functional, cell-based; conditions: HepG2, 72 h
Bel-7402 = test: Antiproliferative activity against human Bel-7402 cells assessed as inhibition of cell growth incubated for 72 hrs by SRB method; format: functional, cell-based; conditions: Bel-7402, 72 h
HT-29 = test: Antiproliferative activity against human HT-29 cells assessed as inhibition of cell growth incubated for 72 hrs by SRB method; format: functional, cell-based; conditions: HT-29, 72 h
769-P = test: Antiproliferative activity against human 769-P cells assessed as inhibition of cell growth incubated for 72 hrs by SRB method; format: functional, cell-based
786-0 [23] = test: Antiproliferative activity against human 786-0 cells assessed as inhibition of cell growth incubated for 72 hrs by SRB method; format: functional, cell-based; conditions: 786-0, 72 h
OS-RC-2 = test: Antiproliferative activity against human OS-RC-2 cells assessed as inhibition of cell growth incubated for 72 hrs by SRB method; format: functional, cell-based; conditions: OS-RC-2, 72 h
KHOS/NP [24] = test: Antiproliferative activity against human KHOS cells assessed as inhibition of cell growth incubated for 72 hrs by SRB method; format: functional, cell-based
MDA-MB-231 = test: Antiproliferative activity against human MDA-MB-231 cells assessed as inhibition of cell growth incubated for 72 hrs by SRB method; format: functional, cell-based; conditions: MDA-MB-231, 72 h
LNCaP = test: Antiproliferative activity against human LNCaP cells assessed as inhibition of cell growth incubated for 72 hrs by SRB method; format: functional, cell-based
PC-3 = test: Antiproliferative activity against human PC3 cells assessed as inhibition of cell growth incubated for 72 hrs by SRB method; format: functional, cell-based; conditions: PC-3, 72 h
SK-OV-3 = test: Antiproliferative activity against human SK-OV-3 cells assessed as inhibition of cell growth incubated for 72 hrs by SRB method; format: functional, cell-based; conditions: SK-OV-3, 72 h
OVCAR-8 = test: Antiproliferative activity against human OVCAR-8 cells assessed as inhibition of cell growth incubated for 72 hrs by SRB method; format: functional, cell-based; conditions: OVCAR-8, 72 h
786-0 [25] = test: Antitumor activity against human 786-0 cells xenografted in dosed BALB/c nude mouse assessed as tumor growth inhibition at 50 mg/kg, ig administered once daily for 22 days; format: functional; conditions: 786-0, po, 528 h, time 22 day, read-out: TGI
KHOS/NP [26] = test: Antitumor activity against human KHOS cells xenografted in dosed BALB/c nude mouse assessed as tumor growth inhibition at 50 mg/kg, ig administered once daily for 22 days; format: functional; conditions: po, 528 h, time 22 day, read-out: TGI
hERG (KCNH2) = hERG (KCNH2) (Homo sapiens, UniProt Q12809); test: Inhibition of human ERG expressed in HEK293 cells at 3 uM by whole cell patch clamp method relative to control; format: cell-based; conditions: HEK293 cells expressing hERG
hERG (KCNH2), sequence (Q12809 whole entry): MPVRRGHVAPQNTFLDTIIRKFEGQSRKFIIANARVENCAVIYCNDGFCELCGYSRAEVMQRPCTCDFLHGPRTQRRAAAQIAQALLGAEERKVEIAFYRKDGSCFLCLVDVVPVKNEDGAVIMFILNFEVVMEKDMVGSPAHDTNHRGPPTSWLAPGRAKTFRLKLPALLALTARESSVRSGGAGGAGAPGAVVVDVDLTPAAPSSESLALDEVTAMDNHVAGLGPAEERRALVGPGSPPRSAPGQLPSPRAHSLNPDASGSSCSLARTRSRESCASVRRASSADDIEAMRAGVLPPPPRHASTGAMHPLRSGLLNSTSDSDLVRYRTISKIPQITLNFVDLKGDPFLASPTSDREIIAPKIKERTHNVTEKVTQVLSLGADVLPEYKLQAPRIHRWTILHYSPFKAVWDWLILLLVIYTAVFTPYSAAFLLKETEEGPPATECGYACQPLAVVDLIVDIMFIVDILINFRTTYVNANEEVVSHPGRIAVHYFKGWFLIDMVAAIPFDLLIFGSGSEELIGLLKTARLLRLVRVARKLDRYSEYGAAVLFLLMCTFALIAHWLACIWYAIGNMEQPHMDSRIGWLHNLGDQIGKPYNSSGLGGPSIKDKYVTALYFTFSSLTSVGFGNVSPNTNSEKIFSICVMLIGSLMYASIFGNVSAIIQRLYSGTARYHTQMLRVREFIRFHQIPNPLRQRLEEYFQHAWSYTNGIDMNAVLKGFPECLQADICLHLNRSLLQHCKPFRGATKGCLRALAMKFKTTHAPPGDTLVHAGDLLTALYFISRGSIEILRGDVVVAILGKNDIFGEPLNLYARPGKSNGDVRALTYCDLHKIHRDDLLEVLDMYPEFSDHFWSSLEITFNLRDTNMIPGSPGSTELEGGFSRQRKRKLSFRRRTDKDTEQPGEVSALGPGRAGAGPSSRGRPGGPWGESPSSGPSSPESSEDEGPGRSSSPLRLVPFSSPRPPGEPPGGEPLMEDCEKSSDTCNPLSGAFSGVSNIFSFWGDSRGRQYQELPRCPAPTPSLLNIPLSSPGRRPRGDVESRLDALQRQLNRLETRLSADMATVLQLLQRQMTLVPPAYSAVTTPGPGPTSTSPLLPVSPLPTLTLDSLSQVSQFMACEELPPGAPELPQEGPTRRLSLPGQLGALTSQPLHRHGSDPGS

RAC-alpha serine/threonine-protein kinase, sequence (P31749 whole entry, the tested form may be a part): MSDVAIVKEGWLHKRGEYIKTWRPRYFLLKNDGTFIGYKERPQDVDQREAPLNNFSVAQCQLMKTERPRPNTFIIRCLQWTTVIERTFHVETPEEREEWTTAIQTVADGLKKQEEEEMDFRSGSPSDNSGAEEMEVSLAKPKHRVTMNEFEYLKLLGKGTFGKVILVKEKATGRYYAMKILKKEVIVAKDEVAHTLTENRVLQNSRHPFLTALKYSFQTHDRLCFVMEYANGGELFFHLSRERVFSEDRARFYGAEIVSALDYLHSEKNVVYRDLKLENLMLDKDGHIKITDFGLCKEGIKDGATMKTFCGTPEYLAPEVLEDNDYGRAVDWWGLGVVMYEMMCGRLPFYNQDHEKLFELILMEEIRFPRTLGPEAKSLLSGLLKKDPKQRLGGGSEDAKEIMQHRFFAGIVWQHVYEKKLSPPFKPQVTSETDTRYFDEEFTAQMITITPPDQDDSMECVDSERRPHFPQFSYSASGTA

In the case of `Cn1ncc(Br)c1-c1cc(F)c(C(=O)N[C@@H]2CNCC[C@H]2c2ccc(F)c(F)c2)c(Cl)c1`, the IC50 [1] is reported as 0.137 µM, the IC50 (HGC-27) is reported as 3.28 µM and the IC50 (786-0 [2]) is reported as 3.21 µM. For the same compound, the IC50 (KHOS/NP [3]) was 3.61 µM.

In the case of `NC1(C(=O)N[C@@H](CCO)c2ccc(Cl)cc2)CCN(c2nc[nH]c3nccc2-3)CC1` [CAPIVASERTIB], the Activity (HaCaT [4]) is reported as “Active”, the viability at 9 µM (HaCaT [5]) is reported as 44% and the Activity (HaCaT [6]) is reported as 1.34%. For the same compound, the Activity (HaCaT [7]) was 47.55%, the Activity (HaCaT [8]) was 7.13% and the viability at 9 µM (HaCaT [9]) was 44.7%. It also gave an Activity (HaCaT [10]) of 1.44%, an Activity (HaCaT [11]) of 47.84% and an Activity (HaCaT [12]) of 5.98%. It also gave a viability at 9 µM (HaCaT [13]) of 70.3%, an Activity (HaCaT [14]) of 0.79% and an Activity (HaCaT [15]) of 25.71%. For the same compound, the Activity (HaCaT [16]) was 3.15%, the viability at 9 µM (HaCaT [17]) was 46% and the Activity (HaCaT [18]) was 1.27%. It also gave an Activity (HaCaT [19]) of 46.52%, an Activity (HaCaT [20]) of 6.23% and an IC50 (HaCaT [21]) of 4.2 µM. The IC50 (U-87 MG) was 50.6 µM, the IC50 (U-251) was 14.2 µM and the IC50 [22] was 2.32 µM. The IC50 (NCI-H1975) was 8.23 µM, the IC50 (A549) was 23.7 µM and the IC50 (SMMC-7721) was 84.1 µM. For the same compound, the IC50 (HepG2) was 6.7 µM, the IC50 (Bel-7402) was 49.6 µM and the IC50 (HT-29) was 36.9 µM. For the same compound, the IC50 (769-P) was 10.8 µM, the IC50 (786-0 [23]) was 23.3 µM and the IC50 (OS-RC-2) was 53.4 µM. It also gave an IC50 (KHOS/NP [24]) of 40.4 µM, an IC50 (MDA-MB-231) of 60.5 µM and an IC50 (LNCaP) of 0.46 µM. For the same compound, the IC50 (PC-3) was 82.6 µM, the IC50 (SK-OV-3) was 6.32 µM and the IC50 (OVCAR-8) was 4.48 µM. For the same compound, the inhibition in vivo at 50 mg/kg (786-0 [25]) was 47.1% and the inhibition in vivo at 50 mg/kg (KHOS/NP [26]) was 33.9%.

With `Cn1nccc1-c1ccc(C(=O)N[C@@H]2CNCC[C@H]2c2ccc(F)c(F)c2)cc1F` the IC50 [1] was 0.0027 µM, the IC50 (HGC-27) was 0.18 µM and the IC50 (786-0 [2]) was 0.95 µM. The IC50 (KHOS/NP [3]) was 7.43 µM and the inhibition at 3 µM (hERG (KCNH2)) was 10.7%.

`Cn1ncc(Br)c1-c1cc(F)c(C(=O)N[C@@H]2CNCC[C@H]2c2ccc(F)c(F)c2)cc1F` showed an IC50 [1] of 0.0662 µM, an IC50 (HGC-27) of 1.79 µM and an IC50 (786-0 [2]) of 1.9 µM. The IC50 (KHOS/NP [3]) was 3.06 µM.

With `CCn1nccc1-c1ccc(C(=O)N[C@@H]2CNCC[C@H]2c2ccc(F)c(F)c2)c(F)c1` the IC50 [1] was 0.176 µM, the IC50 (HGC-27) was 3.57 µM and the IC50 (786-0 [2]) was 5.2 µM. The IC50 (KHOS/NP [3]) was 5.46 µM.

For `Cn1nccc1-c1ccc(C(=O)N[C@@H]2CNCC[C@H]2c2ccc(F)c(F)c2)cc1`, the IC50 (HaCaT [21]) was 5.44 µM.

Compound `Cn1ncc(Cl)c1-c1cc(F)c(C(=O)N[C@@H]2CNCC[C@H]2c2ccc(F)c(F)c2)cc1F` has an IC50 [1] of 0.0489 µM.

For `Cn1nccc1-c1cc(F)c(C(=O)N[C@@H]2CNCC[C@H]2c2ccc(F)cc2)cc1F`, the IC50 [1] was 0.0353 µM, the IC50 (HGC-27) was 3.36 µM and the IC50 (786-0 [2]) was 7.81 µM. For the same compound, the IC50 (KHOS/NP [3]) was 17.6 µM.

Compound `Cn1nccc1-c1cc(F)c(C(=O)N[C@@H]2CNCC[C@H]2c2ccc(F)c(F)c2)c(F)c1` has an IC50 [1] of 0.0263 µM, an IC50 (HGC-27) of 4.59 µM and an IC50 (786-0 [2]) of 7.99 µM. The IC50 (KHOS/NP [3]) was 15.4 µM.

Compound `Cn1ncc(Cl)c1-c1cc(F)c(C(=O)N[C@@H]2CNCC[C@H]2c2ccc(F)c(F)c2)c(F)c1` has an IC50 [1] of 0.0971 µM, an IC50 (HGC-27) of 4.86 µM and an IC50 (786-0 [2]) of 4.28 µM. The IC50 (KHOS/NP [3]) was 4.46 µM.
